Source: patent publication US20080014289A1, “Vehicle and method for treating and preventing acne vulgaris and exfoliating the skin hypohalous acids” (priority 2006, published 2008)
Like-named read-outs stand apart in the source and are kept apart here.

Legend:
[1] = cited from earlier work
acne vulgaris = experiment: Preclinical trial of washing solution, anti-acne activity; type: in vivo
Source text: The concentration of HOCl in the washing solution may be higher than this value depending on where the washing solution is to be applied, e.g. when treating a patient's back for trunk acne, the concentration of HOCl in the washing solution may be as high as 60 ppm for maximum effect in the short term because the thickness of skin on this section of a body is around 3 mm (as compared to a skin thickness of 0.1 mm at the chin section of the face).
Treatment is divided into two stages, treatment period and maintenance period. User should conduct the treatment daily during treatment period until no acne break out; then can switch to maintenance period.
• 1. Wash the face regularly with soap completely removing oil and grime from the surface of the skin. Concentrate on areas of the skin prone to suffering from acne, such as forehead, chin, jawline, around the lips and nose. • 2. Prepare the washing solution as indicated in Examples 1A-1I. • 3. Submerge your face fully into the washing solution, in order to extend time for skin contacting with the solution, moving the head as much as practical while submerged. […]

[2] = cited from earlier work; remark: listed apart in the source
cells = conditions: equimolar basis, compared with HOCl; cited from earlier work
bacteria = conditions: hot tubs, spas and swimming pools; cited from earlier work

## Hypochlorite ion [OCl^−]
[1]; water pH 6.5
  % chlorine as OCl−: 10%
[1]; water pH 7.0
  % chlorine as OCl−: 27%
[1]; water pH 7.2
  % chlorine as OCl−: 34%
[1]; water pH 7.6
  % chlorine as OCl−: 55%
[1]; water pH 8.0
  % chlorine as OCl−: 79%
[1]; water pH 8.5
  % chlorine as OCl−: 90%

## OBr [HOBr, hypobromous acid]
Acne vulgaris
  anti-acne activity compared with hypochlorous acid: slightly less effective than hypochlorous acid
[2]; water pH 6.0
  % of bromine as HOBr: 100%
[2]; water pH 6.5
  % of bromine as HOBr: 99.4%
[2]; water pH 7.0
  % of bromine as HOBr: 98%
[2]; water pH 7.5
  % of bromine as HOBr: 94.0%
[2]; water pH 8.0
  % of bromine as HOBr: 83.0%
[2]; water pH 8.5
  % of bromine as HOBr: 57.0%
cells
  efficiency as a lytic agent, factor relative to HOCl: 10

## OBr [OBr^−, hypobromite]
[2]; water pH 6.0
  % bromine as OBr−: 0.0%
[2]; water pH 6.5
  % bromine as OBr−: 0.6%
[2]; water pH 7.0
  % bromine as OBr−: 2%
[2]; water pH 7.5
  % bromine as OBr−: 6.0%
[2]; water pH 8.0
  % bromine as OBr−: 17.0%
[2]; water pH 8.5
  % bromine as OBr−: 43.0%

## OCl [HOCl, hypochlorous acid]
bacteria
  time needed to completely destroy a given concentration of bacteria: 30 s
[1]; pH above 7.5
  FAC existing as active HOCl: < 50%
[1]; water pH 6.5
  % of Chlorine as HOCl: 90%
[1]; water pH 7.0
  % of Chlorine as HOCl: 73%
[1]; water pH 7.2
  % of Chlorine as HOCl: 66%
[1]; water pH 7.5
  share of FAC in the active HOCl form: ~50%
[1]; water pH 7.6
  % of Chlorine as HOCl: 45%
[1]; water pH 8.0
  % of Chlorine as HOCl: 21%
[1]; water pH 8.5
  % of Chlorine as HOCl: 10%
